For assay [1], the target named is T1, HIV-1 WT RT (Human immunodeficiency virus type 1 group M subtype B, UniProt P03366).
T1 construct: purified RT protein (0.015 mg/mL) was incubated in a 100 µL reaction mixture
Kind of assay: biochemical. To be noted: for pIC50: read-out: IC50.

Assay [2] relates to WT virus (NL4-3). Kind of assay: microbe, parasite or virus in culture. Type of assay: cell-based, HIV-1. Conditions: for pEC50: Human immunodeficiency virus 1, NL43, CEM-SS, read-out: EC50. Here is the method: Evaluation of these compounds for the inhibition of HIV-1 was determined as the fifty percent cell culture inhibitory concentration (CIC50) in CEMSS cell culture with WT virus (NL4-3).
(§1) In this Example, the antiviral and cellular toxicity of NNRTIs was investigated, using the cytopathic cell killing assay described by Yang (Yang et al., "Characteristics of a Group of Non-nucleoside Reverse Transcriptase Inhibitors with Structural Diversity and Potent Anti-Human Immunodeficiency Virus Activity," Leukemia 9:S75-S85 [1995]). Briefly, in this method cells (e.g., the CEM-SS cell line, available from the NIAID AIDS Research and Reference Program [ARRRP]) were seeded at a density of 5 x 10^3 cells/well, into the wells of a 96-well microtiter plate. The cells were then infected with HIV virus (either mutant or WT), at a multiplicity of infection (MOI) previously determined to provide complete cell killing by 6 days of culture post-infection (e.g., MOI of 0.01-0.05). Each of the HIV isolates was pre-titered to induce equivalent levels of infection based on cell killing or virus production, prior to their use in these assays. A range of test compound concentrations was added to the wells in triplicate (e.g., serial half-log dilutions) to evaluate inhibition of HIV infection. Controls for each assay included drug controls (drug colorimetric control wells), drug cytotoxicity control wells (cells with drug), virus control wells (cells with virus), and cell viability controls (cells only). Positive control drugs (e.g., AZT and ddC) were also run in parallel.
(§2) After six days of incubation at 37°C, cell viability was determined spectrophotometrically at 450 nm for each well, using the metabolic reduction of XTT to a soluble colored formazan. (See, Gartner and Popovic, "Virus Isolation and Production, in Aldovini and Walker (eds.), Techniques in HIV Research, Stockton Press, NY, pp. […] [1991]; and Nara and Fischinger, "Quantitative Infectivity Assay for HIV-1 and HIV-2," Nature 332:469-470 [1988]).
(§3) The in vitro therapeutic index (TI50) was defined as the fold-difference between the EC50 and IC50. The results for the various compounds are included in Figures 8 and 19.

Assay [3] concerns NL4-3 (WT). The assay can be described thus: Cytopathic cell killing assay, cross-resistance profile, infected MT-4 cells. Type of assay: cell-based, HIV-1.
Description: (§4) The various HIV isolates tested in the Figures are those corresponding to wild-type virus (NL4-3) and the other strains listed by their RT mutations. The three 4xAZT isolates included in the Figures represent AZT drug-resistant variants. For example, the 4xAZT/L100I isolate has five mutations: four mutations confer increased resistance to AZT, and the other mutation is located within the NNRTI binding pocket. TZB and nevir. (nevirapine) are two well-known NNRTIs, included in this experiment for comparison purposes. […]
as §1, §2, §3
On the technique in general: Protection from cytopathic effect is a common read-out in antiviral testing.

Assay [4] concerns HIV-1 isolate 4xAZT/Y181C. The description is as above. The class given is cell-based.
Description: as §4, §1, §2, §3

In assay [5] the test system is HIV-1 isolate 4xAZT. Described as above. The class given is cell-based.
Description: as §4, §1, §2, §3

The test system of assay [6] is HIV-1 variant A98G. The description is as above. Type of assay: cell-based.
Description: as §4, §1, §2, §3

For assay [7], the system named is HIV-1 variant K101E. The assay is described as above. Type of assay: cell-based.
Description: as §4, §1, §2, §3

For assay [8], the system named is HIV-1 variant K103N. The description is as above. The class given is cell-based. Conditions: isolate K103N.
Description: as §4, §1, §2, §3

Assay [9] relates to HIV-1 variant L100I. The description is as above. The class given is cell-based.
Description: as §4, §1, §2, §3

For assay [10], the system named is HIV-1 variant L74V. The description is as above. Type of assay: cell-based.
Description: as §4, §1, §2, §3

Assay [11] concerns HIV-1 variant V106A. The description is as above. The class given is cell-based.
Description: as §4, §1, §2, §3

The test system of assay [12] is HIV-1 variant V108I. The assay is described as above. The class given is cell-based.
Description: as §4, §1, §2, §3

The test system of assay [13] is HIV-1 variant V179D. The description is as above. The class given is cell-based. Conditions: isolate V179D.
Description: as §4, §1, §2, §3

Assay [14] relates to HIV-1 variant Y181C. The assay is described as above. Type of assay: cell-based. To be noted: isolate Y181C.
Description: as §4, §1, §2, §3

For assay [15], the system named is HIV-1 variant Y188C. The assay is described as above. The class given is cell-based.
Description: as §4, §1, §2, §3

For assay [16], the system named is HIV-1 isolate 4xAZT/L100I. Described as above. Type of assay: cell-based. Here is the method:
The various HIV isolates tested in the Figures are those corresponding to wild-type virus (NL4-3) and the other strains listed by their RT mutations. The three 4xAZT isolates included in the Figures represent AZT drug-resistant variants. […]
as §1, with “Briefly,” for “In this Example, the antiviral and cellular toxicity of NNRTIs was investigated, using the cytopathic cell killing assay described by Yang (Yang et al., "Characteristics of a Group of Non-nucleoside Reverse Transcriptase Inhibitors with Structural Diversity and Potent Anti-Human Immunodeficiency Virus Activity," Leukemia 9:S75-S85 [1995]). Briefly,”
as §2
The in vitro therapeutic index (TI50) was defined as the fold-difference between the EC50 and IC50.

The mark [17] stands for this setting: Table 11, CEMSS/NL4-3, NRVC = reduction in viral CPE not seen (footnote).
The mark [18] stands for this setting: Human immunodeficiency virus 1, MT4, Table 4.
Setting [19] is: Human immunodeficiency virus 1, MT4, Table 9.
[20] abbreviates: Table 7, concentration reducing cell killing or virus production by 50%, HIV-1 WT.
[21] abbreviates: Human immunodeficiency virus 1, NL43, MT4, Table 8, isolate N1.43.
Where [22] appears, read: Human immunodeficiency virus 1, MT4, Table 8, isolate 4XAZT /Y181C.
[23] abbreviates: Human immunodeficiency virus 1, MT4, Table 8, isolate 4XAZT.
Where [24] appears, read: Human immunodeficiency virus 1, MT4, Table 8, isolate A9SG.
Where [25] appears, read: Human immunodeficiency virus 1, MT4, Table 8, isolate K101E.
Where [26] appears, read: Human immunodeficiency virus 1, MT4, Table 8.
Where [27] appears, read: Human immunodeficiency virus 1, MT4, Table 8, isolate 1.1001.
Setting [28] is: Human immunodeficiency virus 1, MT4, Table 8, isolate 1.74V.
[29] abbreviates: Human immunodeficiency virus 1, MT4, Table 8, isolate V 106A.
Where [30] appears, read: Human immunodeficiency virus 1, MT4, Table 8, isolate V1081.
Where [31] appears, read: Human immunodeficiency virus 1, MT4, Table 8, isolate Y 188C.
The mark [32] stands for this setting: Human immunodeficiency virus 1, MT4, Table 8, isolate 4XA7T L 1001.

pEC50, pIC50: −log10 of the molar value. Read-outs that look alike come from different tables or passages of the source. Where only a bound is given, the exact number is not on record here.

On to `Fc1cccc(F)c1Cn1c(-c2c(F)cccc2F)nc2ccccc21` [compound 26, 1-(2,6-difluorobenzyl)-2-(2,6-difluorophenyl)benzimidazole], for which the inhibition at 10 µM in assay [1] (Table 1, WT RT, 10 µM drug concentration, read-out: %inhibn (10µM)) came out at 93%. The pIC50 is 6.96 in assay [1] (Table 1, quantity of drug required to reduce WT RT enzyme activity by 50%) and 6.96 in [1] (Table 11, WT RT). Further, in [1] (Table 2, WT RT, 10 µM drug concentration), the “%inhibn (10µM)” value was found to be 93%. The pEC50 in assay [2] (setting [17]) was 5.77; in assay [3] (Human immunodeficiency virus 1, NL43, MT4, Table 4, isolate NL4-3 (WT)) it was 5.73; in [3] (Human immunodeficiency virus 1, NL43, MT4, Table 9, isolate NL4.3), 5.66; in assay [4] (Human immunodeficiency virus 1, MT4, Table 4, isolate 4xAZT/Y181C), less than 4.70; in assay [4] (Human immunodeficiency virus 1, MT4, Table 9, isolate 4XAZT /Y181C), 4.70; in assay [5] (Human immunodeficiency virus 1, MT4, Table 4, isolate 4xAZT), 6.57. Further, the pEC50 in [5] (Human immunodeficiency virus 1, MT4, Table 9, isolate 4XAZT) is 6.52; in [6] (Human immunodeficiency virus 1, MT4, Table 4, isolate A98G), 5.32; in assay [6] (Human immunodeficiency virus 1, MT4, Table 9, isolate A98G), 5.33; in assay [7] (Human immunodeficiency virus 1, MT4, Table 4, isolate K101E), less than 4.70; in [7] (Human immunodeficiency virus 1, MT4, Table 9, isolate KIOIE) it was less than 4.70; in assay [8] (setting [18]), 4.89. Further, the pEC50 was less than 5.00 in assay [8] (setting [19]); 5.87 in assay [9] (Human immunodeficiency virus 1, MT4, Table 4, isolate L1001); 5.89 in assay [9] (Human immunodeficiency virus 1, MT4, Table 9, isolate L1001); 6.34 in assay [10] (Human immunodeficiency virus 1, MT4, Table 4, isolate L74V); 5.72 in [10] (Human immunodeficiency virus 1, MT4, Table 9, isolate 1.74 V); less than 4.70 in assay [11] (Human immunodeficiency virus 1, MT4, Table 4, isolate V106A). In addition, the pEC50 in [11] (Human immunodeficiency virus 1, MT4, Table 9, isolate V106A) was less than 4.70; in assay [12] (Human immunodeficiency virus 1, MT4, Table 4, isolate V108I) it was 4.98; in [12] (Human immunodeficiency virus 1, MT4, Table 9, isolate V1081) it was less than 5.00; in assay [13] (setting [18]), 5.64; in assay [13] (setting [19]), 5.54; in assay [14] (setting [18]), 4.82. For the same compound, the negative-log EC50 (pEC50) in assay [14] (setting [19]) is 4.85; in assay [15] (Human immunodeficiency virus 1, MT4, Table 4, isolate Y188C), 4.93; in [15] (Human immunodeficiency virus 1, MT4, Table 9, isolate Y188C), less than 5.00; in assay [16] (Human immunodeficiency virus 1, MT4, Table 4, isolate 4xAZT/L.1001), 6.08; in assay [16] (Human immunodeficiency virus 1, MT4, Table 9, isolate 4XAZT /L1001), 6.05.
As for `CC(=O)N(C)c1cccc2c1nc(-c1c(F)cccc1F)n2Cc1c(F)cccc1F` [compound 57, 1-(2,6-Difluorobenzyl)-2-(2,6-difluorophenyl)-4-(N-methylacetamido)-benzimidazole], the pEC50 was 7.70 in assay [2] (setting [20]); 7.70 in assay [2] (setting [17]); 7.70 in [2] (cytopathic cell killing assay, HIV-1 WT); 7.40 in [3] (setting [21]); less than 5.00 in [4] (setting [22]); less than 5.00 in [5] (setting [23]). Also, the pEC50 in [6] (setting [24]) was 7.00; in assay [7] (setting [25]) it was 6.22; in [8] (setting [26]), less than 5.00; in assay [9] (setting [27]), 5.77; in [10] (setting [28]) it was 7.15; in assay [11] (setting [29]) it was 7.30. Besides, the pEC50 is less than 5.00 in assay [12] (setting [30]), 6.40 in assay [13] (setting [26]), 6.30 in assay [15] (setting [31]) and 5.74 in assay [16] (setting [32]). The “-fold more potent than the 4-methyl or 4-amino compounds” value in assay [2] (cytopathic cell killing assay) turned out to be 20 fold.
In the case of `CNc1cccc2c1nc(-c1c(F)cccc1F)n2Cc1c(F)cccc1F` [compound 58, 1-(2,6-Difluorobenzyl)-2-(2,6-difluorophenyl)-4-(N-methylamino)-benzimidazole], the pEC50 was 5.77 in assay [2] (setting [20]); 5.77 in [2] (setting [17]); 5.59 in [3] (setting [21]); less than 4.70 in assay [4] (setting [22]); less than 5.00 in assay [5] (setting [23]); 5.07 in [6] (setting [24]). Further, the pEC50 was less than 4.70 in assay [7] (setting [25]); less than 4.70 in [8] (setting [26]); 6.40 in [9] (setting [27]); 5.41 in [10] (setting [28]); less than 4.70 in [11] (setting [29]); less than 4.70 in assay [12] (setting [30]). The values for the negative logarithm of the EC50 (pEC50) in assay [13] (setting [26]), in assay [15] (setting [31]) and in [16] (setting [32]) were less than 5.00, less than 4.70 and 6.00, respectively.

Usually pIC50 stands for the IC50 on a negative log10 scale, so that one unit is a factor of ten. As a reminder, the pEC50 is the EC50 on a negative log10 scale, so that one unit is a factor of ten.

These data come from patent EP1210336B1, “SUBSTITUTED BENZIMIDAZOLES AS NON-NUCLEOSIDE INHIBITORS OF REVERSE TRANSCRIPTASE” (THE UNITED STATES OF AMERICA, as represented by the …, priority 1999, dated 2001).
